BindingDB's records for 0.1007/s00044-005-0126-y (University, Mississippi, 2005)

Key:
[1] = biological target: T1, Cysteine proteinase falcipain 2a (Plasmodium falciparum, UniProt Q9NBD4); assay: In Vitro Inhibition Assay
T1 sequence (Q9NBD4 whole entry): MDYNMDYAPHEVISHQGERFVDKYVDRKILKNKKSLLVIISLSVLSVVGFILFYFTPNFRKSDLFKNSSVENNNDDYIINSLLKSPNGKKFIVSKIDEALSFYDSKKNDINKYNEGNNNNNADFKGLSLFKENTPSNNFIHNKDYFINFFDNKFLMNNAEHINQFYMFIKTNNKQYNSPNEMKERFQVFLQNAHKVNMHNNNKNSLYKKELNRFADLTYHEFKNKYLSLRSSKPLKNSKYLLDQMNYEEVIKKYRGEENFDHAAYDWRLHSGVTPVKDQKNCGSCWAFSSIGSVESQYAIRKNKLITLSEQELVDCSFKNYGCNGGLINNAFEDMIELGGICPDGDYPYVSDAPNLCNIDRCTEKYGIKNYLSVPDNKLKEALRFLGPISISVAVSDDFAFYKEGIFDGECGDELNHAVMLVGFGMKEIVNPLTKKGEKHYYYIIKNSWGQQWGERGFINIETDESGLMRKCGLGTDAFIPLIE
Description: (§1) In vitro antimalarial assay, antimalarial activity of the compounds was determined in vitro on chloroquine sensitive and resistant strains of plasmodium flaciparum as described earlier.

[2] = biological target: T2, Cysteine proteinase falcipain 3 (Plasmodium falciparum (isolate 3D7), UniProt Q8IIL0); assay: In Vitro Inhibition Assay
T2 sequence (Q8IIL0 whole entry): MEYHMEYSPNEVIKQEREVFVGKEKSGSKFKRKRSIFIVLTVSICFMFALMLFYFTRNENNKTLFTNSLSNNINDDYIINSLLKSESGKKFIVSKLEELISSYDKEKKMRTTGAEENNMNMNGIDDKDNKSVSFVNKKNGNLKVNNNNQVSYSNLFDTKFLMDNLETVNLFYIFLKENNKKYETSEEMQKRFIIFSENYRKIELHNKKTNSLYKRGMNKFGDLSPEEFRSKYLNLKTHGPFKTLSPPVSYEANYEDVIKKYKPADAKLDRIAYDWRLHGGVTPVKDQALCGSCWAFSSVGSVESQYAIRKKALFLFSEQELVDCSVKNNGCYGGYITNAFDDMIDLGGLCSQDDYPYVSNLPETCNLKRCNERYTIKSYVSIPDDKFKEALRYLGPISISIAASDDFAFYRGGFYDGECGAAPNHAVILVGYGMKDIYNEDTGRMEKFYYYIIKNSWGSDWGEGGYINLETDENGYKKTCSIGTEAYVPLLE
Description: as §1

Row | SMILES | IC50 [1] | IC50 [2]
1 | O=C(CCc1nc(CO)c(CCc2ccccc2)s1)CSCCCc1ccccc1 [Trisubsituted thiazole, 29] | > 12.5 µM | > 50 µM
2 | O=CCCc1sc(CCC(=O)CSCCCc2ccccc2)nc1CCc1ccccc1 [Trisubsituted thiazole, 16] | 39.1 µM | > 50 µM
3 | O=C(C=Cc1nc(CCc2ccccc2)c(CCCO)s1)CSCCCc1ccccc1 [Trisubsituted thiazole, 14] | 6.6 µM | 29.4 µM
4 | NC(=O)CCc1sc(CCC(=O)CSCCCc2ccccc2)nc1CCc1ccccc1 [Trisubsituted thiazole, 17] | > 33 µM | > 50 µM
5 | NC(=O)CCc1sc(NC(=O)CSCCCc2ccccc2)nc1/C=C/c1ccccc1 [Trisubsituted thiazole, 23] | 15.3 µM | 
6 | CC(=O)NCCCc1sc(CCC(=O)CSCCCc2ccccc2)nc1CCc1ccccc1 [Trisubsituted thiazole, 20] | > 33 µM | > 50 µM
7 | CC(=O)OCc1nc(CCC(=O)CSCCCc2ccccc2)sc1CCc1ccccc1 [Trisubsituted thiazole, 30] | > 33 µM | > 50 µM
8 | O=C(CCc1nc(CCc2ccccc2)c(CCCO)s1)CSCCCc1ccccc1 [Trisubsituted thiazole, 15] | > 12.5 µM | > 50 µM
